For assay [1], the system named is cyclin D1. Description: Cyclin D1 percentage degradation in Calu-1 cells (immunoblotting). The class given is cell-based. As to conditions: 200 nM, 16 hours. As to the method:
(§1) […] A: protein percentage degradation >=80%; B: protein percentage degradation <80%, and >=50%; C: protein percentage degradation <50%, and >=30%; D: protein percentage degradation <30%.
(§2) Cultured cells were washed with cold PBS once and lysed in cold RIPA buffer supplemented with protease inhibitors and phosphatase inhibitors (Beyotime Biotechnology). The solutions were then incubated at 4° C. for 30 min with gentle agitation to fully lysed cells. Cell lysates were centrifuged at 13,000 rpm for 10 min at 4° C. and pellets were discarded. Total protein concentrations in the lysates were determined following BCA assays (Beyotime Biotechnology). Cell lysates were mixed with Laemmli loading buffer and heated at 99° C. for 5 min. Proteins were resolved on SDS-PAGE and visualized using Western ECL Substrate kits on a ChemiDoc MP Imaging system (Bio-Rad). Protein bands were quantitated using the Image Lab software provided by Bio-Rad.

The target of assay [2] is T1, CDK4 (Homo sapiens, UniProt P11802).
T1 construct: endogenous in cells; host or cells: Calu-1
The experiment in a line: CDK4 percentage degradation in Calu-1 cells (immunoblotting). The class given is cell-based. The settings on record: Calu-1 cells, 200 nM, 16 hours; read-out: CDK4 Degradation (200 nM). As to the method:
as §1, §2

T1 sequence (P11802 2-303 limits assumed): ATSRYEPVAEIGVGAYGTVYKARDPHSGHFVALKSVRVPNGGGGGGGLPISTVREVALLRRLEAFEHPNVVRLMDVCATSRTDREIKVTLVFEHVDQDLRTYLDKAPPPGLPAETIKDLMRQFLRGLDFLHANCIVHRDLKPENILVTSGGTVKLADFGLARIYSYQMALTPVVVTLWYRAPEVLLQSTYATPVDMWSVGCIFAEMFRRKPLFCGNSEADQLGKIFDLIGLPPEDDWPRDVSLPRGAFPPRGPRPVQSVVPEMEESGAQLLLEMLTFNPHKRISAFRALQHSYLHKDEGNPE
T1 sequence (P24385 whole entry partner): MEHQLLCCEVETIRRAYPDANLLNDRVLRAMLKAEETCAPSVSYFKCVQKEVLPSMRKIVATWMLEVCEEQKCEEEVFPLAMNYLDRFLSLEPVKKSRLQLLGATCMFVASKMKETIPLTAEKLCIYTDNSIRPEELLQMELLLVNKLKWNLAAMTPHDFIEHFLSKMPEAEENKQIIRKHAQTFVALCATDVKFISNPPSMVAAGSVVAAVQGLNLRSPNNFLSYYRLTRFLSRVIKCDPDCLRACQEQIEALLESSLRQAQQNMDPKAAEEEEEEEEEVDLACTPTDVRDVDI
T1 sequence (Q16531 2-1140 limits assumed, further chain): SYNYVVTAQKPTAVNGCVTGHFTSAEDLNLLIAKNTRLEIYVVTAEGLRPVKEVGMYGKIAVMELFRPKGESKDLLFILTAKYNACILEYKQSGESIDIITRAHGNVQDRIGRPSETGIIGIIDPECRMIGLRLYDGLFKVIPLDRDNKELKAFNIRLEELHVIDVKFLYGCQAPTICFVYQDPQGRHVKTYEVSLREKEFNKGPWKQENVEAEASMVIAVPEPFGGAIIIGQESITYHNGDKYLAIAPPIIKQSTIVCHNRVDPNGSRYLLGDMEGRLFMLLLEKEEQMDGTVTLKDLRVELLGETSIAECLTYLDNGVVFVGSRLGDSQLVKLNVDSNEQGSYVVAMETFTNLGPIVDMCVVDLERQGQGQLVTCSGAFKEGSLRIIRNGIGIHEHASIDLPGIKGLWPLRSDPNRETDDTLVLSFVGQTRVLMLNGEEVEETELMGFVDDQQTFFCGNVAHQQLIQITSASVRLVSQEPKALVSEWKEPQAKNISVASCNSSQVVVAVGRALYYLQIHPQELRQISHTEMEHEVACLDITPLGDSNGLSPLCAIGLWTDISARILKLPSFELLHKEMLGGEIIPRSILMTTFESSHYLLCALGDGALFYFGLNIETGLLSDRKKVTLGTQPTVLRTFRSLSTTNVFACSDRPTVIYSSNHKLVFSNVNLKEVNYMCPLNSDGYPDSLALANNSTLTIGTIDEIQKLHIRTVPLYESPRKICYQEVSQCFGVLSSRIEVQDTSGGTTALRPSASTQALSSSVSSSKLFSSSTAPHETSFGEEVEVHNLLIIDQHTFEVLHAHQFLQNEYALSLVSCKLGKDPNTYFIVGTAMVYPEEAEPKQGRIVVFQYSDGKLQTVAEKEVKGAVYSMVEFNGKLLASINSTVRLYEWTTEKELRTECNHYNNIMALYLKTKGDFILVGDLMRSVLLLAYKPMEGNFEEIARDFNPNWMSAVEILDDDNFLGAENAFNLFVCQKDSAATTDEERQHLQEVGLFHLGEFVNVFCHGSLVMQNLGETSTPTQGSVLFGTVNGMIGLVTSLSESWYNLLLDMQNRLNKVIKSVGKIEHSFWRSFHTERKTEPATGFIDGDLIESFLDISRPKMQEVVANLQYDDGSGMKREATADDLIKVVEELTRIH

For `CC(=O)c1c(C)c2cnc(Nc3ccc(N4CCN(CC(=O)NCCCCCNC(=O)COc5ccc(C(=O)Nc6ncc(C)s6)c(C)c5)CC4)cn3)nc2n(C2CCCC2)c1=O` [CPD-036, 4-(2-((5-(2-(4-(6-((6-Acetyl-8-cyclopentyl-5-methyl-7-oxo-7,8-dihydropyrido[2,3-d]pyrimidin-2-yl)amino)pyridin-3-yl)piperazin-1-yl)acetamido)pentyl)amino)-2-oxoethoxy)-2-methyl-N-(5-methylthiazol-2-yl)benzamide], the “CyclinD1 Degradation (200 nM)” value in assay [1] is listed as “D (protein percentage degradation <30%)”. For the same compound, the inhibition at 0.2 µM in assay [2] is below 30%.
For `CC(=O)c1c(C)c2cnc(Nc3ccc(N4CCN(CC(=O)NCCCCCCCNC(=O)COc5ccc(C(=O)Nc6ncc(C)s6)c(C)c5)CC4)cn3)nc2n(C2CCCC2)c1=O` [CPD-037, 4-(2-((7-(2-(4-(6-((6-Acetyl-8-cyclopentyl-5-methyl-7-oxo-7,8-dihydropyrido[2,3-d]pyrimidin-2-yl)amino)pyridin-3-yl)piperazin-1-yl)acetamido)heptyl)amino)-2-oxoethoxy)-2-methyl-N-(5-methylthiazol-2-yl)benzamide], in that order: “D (protein percentage degradation <30%)” and below 30%.
On to `CC(=O)c1c(C)c2cnc(Nc3ccc(N4CCN(CC(=O)NCCCCCCCCCNC(=O)COc5ccc(C(=O)Nc6ncc(C)s6)c(C)c5)CC4)cn3)nc2n(C2CCCC2)c1=O` [CPD-038, 4-(2-((9-(2-(4-(6-((6-Acetyl-8-cyclopentyl-5-methyl-7-oxo-7,8-dihydropyrido[2,3-d]pyrimidin-2-yl)amino)pyridin-3-yl)piperazin-1-yl)acetamido)nonyl)amino)-2-oxoethoxy)-2-methyl-N-(5-methylthiazol-2-yl)benzamide], for which, in assay [1], the “CyclinD1 Degradation (200 nM)” value was “D (protein percentage degradation <30%)”. Besides, in assay [2], the inhibition at 0.2 µM was below 30%.
For `CC(=O)c1c(C)c2cnc(Nc3ccc(N4CCN(CC(=O)NCCOCCOCCNC(=O)COc5ccc(C(=O)Nc6ncc(C)s6)c(C)c5)CC4)cn3)nc2n(C2CCCC2)c1=O` [CPD-039, 4-((14-(4-(6-((6-Acetyl-8-cyclopentyl-5-methyl-7-oxo-7,8-dihydropyrido[2,3-d]pyrimidin-2-yl)amino)pyridin-3-yl)piperazin-1-yl)-2,13-dioxo-6,9-dioxa-3,12-diazatetradecyl)oxy)-2-methyl-N-(5-methylthiazol-2-yl)benzamide], the “CyclinD1 Degradation (200 nM)” value in assay [1] is “D (protein percentage degradation <30%)”. In assay [2], the inhibition at 0.2 µM was below 30%.
Consider `CC(=O)c1c(C)c2cnc(Nc3ccc(N4CCN(CC(=O)NCCOCCOCCOCCNC(=O)COc5ccc(C(=O)Nc6ncc(C)s6)c(C)c5)CC4)cn3)nc2n(C2CCCC2)c1=O` [CPD-040, 4-((17-(4-(6-((6-Acetyl-8-cyclopentyl-5-methyl-7-oxo-7,8-dihydropyrido[2,3-d]pyrimidin-2-yl)amino)pyridin-3-yl)piperazin-1-yl)-2,16-dioxo-6,9,12-trioxa-3,15-diazaheptadecyl)oxy)-2-methyl-N-(5-methylthiazol-2-yl)benzamide], for which the “CyclinD1 Degradation (200 nM)” value in assay [1] is recorded as “D (protein percentage degradation <30%)”. The inhibition at 0.2 µM in assay [2] is below 30%.
Turning to `CC(=O)c1c(C)c2cnc(Nc3ccc(N4CCN(CC(=O)NCCOCCOCCOCCOCCNC(=O)COc5ccc(C(=O)Nc6ncc(C)s6)c(C)c5)CC4)cn3)nc2n(C2CCCC2)c1=O` [CPD-041, 4-((20-(4-(6-((6-Acetyl-8-cyclopentyl-5-methyl-7-oxo-7,8-dihydropyrido[2,3-d]pyrimidin-2-yl)amino)pyridin-3-yl)piperazin-1-yl)-2,19-dioxo-6,9,12,15-tetraoxa-3,18-diazaicosyl)oxy)-2-methyl-N-(5-methylthiazol-2-yl)benzamide], the “CyclinD1 Degradation (200 nM)” value in assay [1] is listed as “D (protein percentage degradation <30%)”. The inhibition at 0.2 µM in assay [2] is below 30%.
Regarding `CC(=O)c1nc(NC(=O)c2ccc(NCCOCCOCCOCCOCCOCCNC(=O)CN3CCN(c4ccc(Nc5ncc6c(C)c(C(C)=O)c(=O)n(C7CCCC7)c6n5)nc4)CC3)cc2C)sc1C` [CPD-045, N-(4-Acetyl-5-methylthiazol-2-yl)-4-((1-(4-(6-((6-acetyl-8-cyclopentyl-5-methyl-7-oxo-7,8-dihydropyrido[2,3-d]pyrimidin-2-yl)amino)pyridin-3-yl)piperazin-1-yl)-2-oxo-6,9,12,15,18-pentaoxa-3-azaicosan-20-yl)amino)-2-methylbenzamide], in assay [1], the “CyclinD1 Degradation (200 nM)” value was “A (protein percentage degradation >=80%)”. Further, the inhibition at 0.2 µM in assay [2] is 50 to 80%.
For `CC(=O)c1c(C)c2cnc(Nc3ccc(N4CCN(CC(=O)NCCCCCCCNC(=O)c5ccc(C(=O)Nc6ncc(C)s6)c(C)c5)CC4)cn3)nc2n(C2CCCC2)c1=O` [CPD-048, N^4-(7-(2-(4-(6-((6-Acetyl-8-cyclopentyl-5-methyl-7-oxo-7,8-dihydropyrido[2,3-d]pyrimidin-2-yl)amino)pyridin-3-yl)piperazin-1-yl)acetamido)heptyl)-2-methyl-N^1-(5-methylthiazol-2-yl)terephthalamide] the same measures were “D (protein percentage degradation <30%)” and below 30%.
For `CC(=O)c1c(C)c2cnc(Nc3ccc(N4CCN(CC(=O)NCCOCCOCCOCCOCCOCCNc5ccc(C(=O)Nc6cc(C)n(C)n6)c(C)c5)CC4)cn3)nc2n(C2CCCC2)c1=O` [CPD-050, 4-((1-(4-(6-((6-Acetyl-8-cyclopentyl-5-methyl-7-oxo-7,8-dihydropyrido[2,3-d]pyrimidin-2-yl)amino)pyridin-3-yl)piperazin-1-yl)-2-oxo-6,9,12,15,18-pentaoxa-3-azaicosan-20-yl)amino)-N-(1,5-dimethyl-1H-pyrazol-3-yl)-2-methylbenzamide], in that order: “A (protein percentage degradation >=80%)” and above 80%.
In the case of `CC(=O)c1c(C)c2cnc(Nc3ccc(N4CCN(CC(=O)NCCOCCOCCC(=O)Nc5ccccc5C(=O)Nc5ncc(C)s5)CC4)cn3)nc2n(C2CCCC2)c1=O` [CPD-051, 2-(3-(2-(2-(2-(4-(6-((6-Acetyl-8-cyclopentyl-5-methyl-7-oxo-7,8-dihydropyrido[2,3-d]pyrimidin-2-yl)amino)pyridin-3-yl)piperazin-1-yl)acetamido)ethoxy)ethoxy)propanamido)-N-(5-methylthiazol-2-yl)benzamide], the “CyclinD1 Degradation (200 nM)” value in assay [1] is listed as “A (protein percentage degradation >=80%)”. The inhibition at 0.2 µM in assay [2] is above 80%.
For `CC(=O)c1c(C)c2cnc(Nc3ccc(N4CCN(CC(=O)NCCOCCOCCC(=O)Nc5ccccc5C(=O)Nc5cc(C)n(C)n5)CC4)cn3)nc2n(C2CCCC2)c1=O` [CPD-052, 2-(3-(2-(2-(2-(4-(6-((6-Acetyl-8-cyclopentyl-5-methyl-7-oxo-7,8-dihydropyrido[2,3-d]pyrimidin-2-yl)amino)pyridin-3-yl)piperazin-1-yl)acetamido)ethoxy)ethoxy)propanamido)-N-(1,5-dimethyl-1H-pyrazol-3-yl)benzamide], the “CyclinD1 Degradation (200 nM)” value in assay [1] is given as “A (protein percentage degradation >=80%)”. Besides, the inhibition at 0.2 µM in assay [2] was 50 to 80%.
As to `CC(=O)c1c(C)c2cnc(Nc3ccc(N4CCN(CC(=O)NCCOCCOCCC(=O)Nc5ccccc5C(=O)Nc5ccccn5)CC4)cn3)nc2n(C2CCCC2)c1=O` [CPD-053, 2-(3-(2-(2-(2-(4-(6-((6-Acetyl-8-cyclopentyl-5-methyl-7-oxo-7,8-dihydropyrido[2,3-d]pyrimidin-2-yl)amino)pyridin-3-yl)piperazin-1-yl)acetamido)ethoxy)ethoxy)propanamido)-N-(pyridin-2-yl)benzamide], in assay [1], the “CyclinD1 Degradation (200 nM)” value was “B (protein percentage degradation <80%, and >=50%)”. In addition, in assay [2], the inhibition at 0.2 µM was 50 to 80%.
`CC(=O)c1c(C)c2cnc(Nc3ccc(N4CCN(CC(=O)NCCOCCOCCC(=O)Nc5ccccc5C(=O)Nc5cnc(C)cn5)CC4)cn3)nc2n(C2CCCC2)c1=O` [CPD-054, 2-(3-(2-(2-(2-(4-(6-((6-Acetyl-8-cyclopentyl-5-methyl-7-oxo-7,8-dihydropyrido[2,3-d]pyrimidin-2-yl)amino)pyridin-3-yl)piperazin-1-yl)acetamido)ethoxy)ethoxy)propanamido)-N-(5-methylpyrazin-2-yl)benzamide]: in assay [1], the “CyclinD1 Degradation (200 nM)” value is “A (protein percentage degradation >=80%)”. In addition, the inhibition at 0.2 µM in assay [2] was 50 to 80%.
For `CC(=O)c1c(C)c2cnc(Nc3ccc(N4CCN(CC(=O)NCCOCCOCCC(=O)Nc5ccccc5C(=O)Nc5ncc(C)cn5)CC4)cn3)nc2n(C2CCCC2)c1=O` [CPD-055, 2-(3-(2-(2-(2-(4-(6-((6-Acetyl-8-cyclopentyl-5-methyl-7-oxo-7,8-dihydropyrido[2,3-d]pyrimidin-2-yl)amino)pyridin-3-yl)piperazin-1-yl)acetamido)ethoxy)ethoxy)propanamido)-N-(5-methylpyrimidin-2-yl)benzamide] the same measures were “D (protein percentage degradation <30%)” and below 30%.
For `CC(=O)c1c(C)c2cnc(Nc3ccc(N4CCN(CC(=O)NCCOCCOCCC(=O)Nc5ccccc5C(=O)Nc5ccc(C)nn5)CC4)cn3)nc2n(C2CCCC2)c1=O` [CPD-056, 2-(3-(2-(2-(2-(4-(6-((6-Acetyl-8-cyclopentyl-5-methyl-7-oxo-7,8-dihydropyrido[2,3-d]pyrimidin-2-yl)amino)pyridin-3-yl)piperazin-1-yl)acetamido)ethoxy)ethoxy)propanamido)-N-(6-methylpyridazin-3-yl)benzamide] the same measures were “A (protein percentage degradation >=80%)” and 50 to 80%.

The record behind these values is patent US20250235543A1, “MODIFIED PROTEINS AND PROTEIN DEGRADERS” (Cullgen (Shanghai), Inc., priority 2021, published 2025).
